Usually pIC50 stands for −log10 of the IC50, conventionally taken in molar units. High values mean a low IC50, low ones a high IC50.

The values below come from ChEMBL document CHEMBL1138794, “Influence of the linker in bispyridium compounds on the inhibition of human choline kinase” (J Med Chem, 2004).

pIC50: −log10 of the molar value. Some results are limits rather than exact numbers.

One test has as its system HT-29. Kind of test: Antiproliferative activity was determined using HT-29 human colon cancer cell line. The class given is functional, cell-based.
Another test addresses Choline kinase alpha (Homo sapiens, UniProt P35790). In words: Inhibitory activity against human choline kinase enzyme.

Choline kinase alpha, sequence (P35790 whole entry): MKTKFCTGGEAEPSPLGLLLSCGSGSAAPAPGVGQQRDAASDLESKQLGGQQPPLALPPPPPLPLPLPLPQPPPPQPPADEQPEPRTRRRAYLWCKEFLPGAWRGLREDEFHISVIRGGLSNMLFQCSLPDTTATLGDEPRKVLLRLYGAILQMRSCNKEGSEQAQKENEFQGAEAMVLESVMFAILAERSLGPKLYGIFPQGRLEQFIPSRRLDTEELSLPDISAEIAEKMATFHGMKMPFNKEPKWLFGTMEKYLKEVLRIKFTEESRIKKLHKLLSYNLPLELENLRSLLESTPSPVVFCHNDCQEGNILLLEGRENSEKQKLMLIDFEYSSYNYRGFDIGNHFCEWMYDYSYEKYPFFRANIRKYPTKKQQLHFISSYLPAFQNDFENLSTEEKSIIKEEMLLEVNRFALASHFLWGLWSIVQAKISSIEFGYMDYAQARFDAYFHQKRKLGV

Turning to `c1cc(-c2ccc(C[n+]3ccc(N4CCCC4)cc3)cc2)ccc1C[n+]1ccc(N2CCCC2)cc1`, the pIC50 in the test on HT-29 was 5.21; against Choline kinase alpha, 4.95. In the same order, the values of `CN(c1ccc(Cl)cc1)c1cc[n+](C[C@H]2C[C@@H]2C[n+]2ccc(N(C)c3ccc(Cl)cc3)cc2)cc1` are 4.61 and 4.32.

Take `CN(c1ccc(Cl)cc1)c1cc[n+](Cc2cccc(C[n+]3ccc(N(C)c4ccc(Cl)cc4)cc3)c2)cc1`: the pIC50 with HT-29 was 5.48; against Choline kinase alpha, 5.14. As for `CN(c1ccc(Cl)cc1)c1cc[n+](Cc2ccc(-c3ccc(C[n+]4ccc(N(C)c5ccc(Cl)cc5)cc4)cc3)cc2)cc1`, the pIC50 with HT-29 is 6.31; at Choline kinase alpha, 5.74. The corresponding values for `CN(c1ccccc1)c1cc[n+](Cc2cccc(-c3cccc(C[n+]4ccc(N(C)c5ccccc5)cc4)c3)c2)cc1` are 5.66 and 6.40. In the same order, the values of `c1c[n+](C[C@H]2C[C@@H]2C[n+]2ccc(N3CCCCC3)cc2)ccc1N1CCCCC1` are 4.00 and 4.01. In the same order, the values of `c1cc(C[n+]2ccc(N3CCCCC3)cc2)cc(C[n+]2ccc(N3CCCCC3)cc2)c1` are 4.37 and 4.28. As for `CN(c1cc[n+](C[C@H]2C[C@@H]2C[n+]2ccc(N(C)c3cc(Cl)cc(Cl)c3)cc2)cc1)c1cc(Cl)cc(Cl)c1`, the figures for the pIC50 with HT-29 and at Choline kinase alpha were 5.12 and less than 4.00, respectively. For the compound `CN(c1ccccc1)c1cc[n+](Cc2cccc(C[n+]3ccc(N(C)c4ccccc4)cc3)c2)cc1`, the pIC50 in the test on HT-29 was 5.29; against Choline kinase alpha, 4.43.

In turn, `c1cc(C[n+]2ccc(N3CCCCC3)cc2)cc(-c2cccc(C[n+]3ccc(N4CCCCC4)cc3)c2)c1` showed a pIC50 in the test with HT-29 of 5.80.

As for `c1cc(C[n+]2ccc(N3CCCC3)cc2)ccc1C[n+]1ccc(N2CCCC2)cc1`, the negative logarithm of the IC50 (pIC50) is less than 4.00 in the test on HT-29 and 4.62 at Choline kinase alpha. On to `CN(c1ccc(Cl)cc1)c1cc[n+](Cc2ccc(C[n+]3ccc(N(C)c4ccc(Cl)cc4)cc3)cc2)cc1`, for which the pIC50 in the test with HT-29 is 5.46; against Choline kinase alpha it was 5.54. In the same order, the values of `CN(c1ccccc1)c1cc[n+](C[C@H]2C[C@@H]2C[n+]2ccc(N(C)c3ccccc3)cc2)cc1` are less than 4.00 and less than 4.00. The corresponding values for `CN(c1ccccc1)c1cc[n+](Cc2ccc(-c3ccc(C[n+]4ccc(N(C)c5ccccc5)cc4)cc3)cc2)cc1` are 5.70 and 5.37.

With `c1cc(C[n+]2ccc(N3CCCCC3)cc2)ccc1C[n+]1ccc(N2CCCCC2)cc1`, the negative logarithm of the IC50 (pIC50) was less than 4.00 with HT-29 and 4.42 at Choline kinase alpha. The corresponding values for `CN(c1cc[n+](Cc2ccc(C[n+]3ccc(N(C)c4cc(Cl)cc(Cl)c4)cc3)cc2)cc1)c1cc(Cl)cc(Cl)c1` are 5.54 and 5.01.

`c1cc(C[n+]2ccc(N3CCCC3)cc2)cc(C[n+]2ccc(N3CCCC3)cc2)c1`: the pIC50 in the test with HT-29 was 4.30; against Choline kinase alpha, 4.07.

As to `c1cc(-c2ccc(C[n+]3ccc(N4CCCCC4)cc3)cc2)ccc1C[n+]1ccc(N2CCCCC2)cc1`, the pIC50 with HT-29 is 5.38; at Choline kinase alpha, 5.06. The corresponding values for `c1c[n+](C[C@H]2C[C@@H]2C[n+]2ccc(N3CCCC3)cc2)ccc1N1CCCC1` are less than 4.00 and less than 4.00.

With `CN(c1ccccc1)c1cc[n+](Cc2ccc(C[n+]3ccc(N(C)c4ccccc4)cc3)cc2)cc1`, the pIC50 in the test on HT-29 was 5.17; against Choline kinase alpha, 4.82. As to `CN(c1cc[n+](Cc2cccc(C[n+]3ccc(N(C)c4cc(Cl)cc(Cl)c4)cc3)c2)cc1)c1cc(Cl)cc(Cl)c1`, the pIC50 in the test with HT-29 is 5.40; at Choline kinase alpha, 5.08. In the same order, the values of `CN(c1cc[n+](Cc2cccc(-c3cccc(C[n+]4ccc(N(C)c5cc(Cl)cc(Cl)c5)cc4)c3)c2)cc1)c1cc(Cl)cc(Cl)c1` are 5.74 and 5.59.
